# Results published in patent US20060069132A1, “Azolecarboxamide herbicides” (priority 2004, published 2006).
# How the values were obtained:
# [1] = tested on: Surinam grass; experiment: Test B pre-/postemergence herbicide test; format: in vivo, Urochloa decumbens
# Outline: (§1)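 Visual rating, 0 (no effect) to 100 (complete control), versus untreated controls after 13–15 d in greenhouse. Pre- and postemergence applications (postemergence plants 2–18 cm, 1–4 leaves); flooded paddy arm at 2-leaf stage. Compounds in non-phytotoxic solvent plus surfactant.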
# [2] = tested on: corn; experiment: Test B pre-/postemergence herbicide test; format: in vivo, Zea mays
# Outline: as §1
# [3] = tested on: large crabgrass; experiment: Test B pre-/postemergence herbicide test; format: in vivo, Digitaria sanguinalis
# Outline: as §1
# [4] = tested on: giant foxtail; experiment: Test B pre-/postemergence herbicide test; format: in vivo, Setaria faberi
# Outline: as §1
# [5] = tested on: lambsquarters; experiment: Test B pre-/postemergence herbicide test; format: in vivo, Chenopodium album
# Outline: as §1
# [6] = tested on: morningglory; experiment: Test B pre-/postemergence herbicide test; format: in vivo, Ipomoea coccinea
# Outline: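 Evaluation is visual, comparing treated with control plants on a scale where 0 means no effect and 100 means full control. Treatments were preemergence, or postemergence on seedlings 2–18 cm tall, and held 13–15 days in the greenhouse.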
# [7] = tested on: pigweed; experiment: Test B pre-/postemergence herbicide test; format: in vivo, Amaranthus retroflexus
# Outline: as §1
# [8] = tested on: velvetleaf; experiment: Test B pre-/postemergence herbicide test; format: in vivo, Abutilon theophrasti
# Outline: as §1
# [9] = tested on: blackgrass; experiment: Test B postemergence herbicide test; format: in vivo, Alopecurus myosuroides; conditions: for Plant response rating, Blackgrass: visual rating after 13 to 15 days
# Outline: (§2)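 Each value is a visual 0–100 response rating taken against controls 13 to 15 days after treatment in the greenhouse. Plants received formulated chemical postemergence at the 1- to 4-leaf stage or, in flooded paddy, at the 2-leaf stage.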
# [10] = tested on: wheat; experiment: Test B postemergence herbicide test; format: in vivo, Triticum aestivum; parameters: key to Wheat plant response rating: 0 = no effect, 100 = complete control
# Outline: (§3)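 Read-out: visual comparison with controls, scored 0 to 100, where 100 means complete control and 0 no effect. Formulated chemicals were applied postemergence to plants 2–18 cm tall (1- to 4-leaf), or to flooded-paddy plants at the 2-leaf stage, then held 13 to 15 days under glass.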
# [11] = tested on: wild oat; experiment: Test B postemergence herbicide test; format: in vivo, Avena fatua; conditions: for Plant response rating, Oat, Wild: visual rating after 13 to 15 days
# Outline: as §3
# [12] = tested on: rice; experiment: Test B flooded paddy test; format: in vivo, Oryza sativa; conditions: 1000 g ai/ha, scale 0 to 100 (0 no effect, 100 complete control)
# Outline: as §3
# [13] = tested on: small flower umbrella sedge; experiment: Test B flooded paddy test; format: in vivo, Cyperus difformis; conditions: 1000 g ai/ha, scale 0 to 100 (0 no effect, 100 complete control)
# Outline: as §2
# [14] = tested on: ducksalad; experiment: Test B flooded paddy test; format: in vivo, Heteranthera limosa; conditions: 1000 g ai/ha, scale 0 to 100 (0 no effect, 100 complete control)
# Outline: as §2
# [15] = tested on: barnyardgrass; experiment: Test B flooded paddy test; format: in vivo, Echinochloa crus-galli; conditions: 1000 g ai/ha, scale 0 to 100 (0 no effect, 100 complete control)
# Outline: as §2
# [16] = 125 g ai/ha, 0 = no effect, 100 = complete control, preemergence
# [17] = 500 g ai/ha, visual rating, 0 = no effect, 100 = complete control, preemergence
# [18] = postemergence, 125 g ai/ha, visual rating, scale 0 (no effect) to 100 (complete control)
# [19] = postemergence, 500 g ai/ha, scale 0 to 100, 0 is no effect, 100 is complete control
# [20] = postemergence, 500 g ai/ha; scale 0 to 100, 0 is no effect, 100 is complete control
# [21] = 125 g ai/ha, visual rating, scale 0 (no effect) to 100 (complete control), postemergence
# [22] = Postemergence, 500 g ai/ha, visual rating after 13 to 15 days, scale 0 (no effect) to 100 (complete control)
# [23] = Preemergence, 500 g ai/ha, scale 0 to 100
# [24] = preemergence, 125 g ai/ha, 0 to 100 scale, 0 is no effect, 100 is complete control
# [25] = Postemergence, 125 g ai/ha, scale 0 (no effect) to 100 (complete control)
# [26] = Postemergence, 500 g ai/ha, scale 0 (no effect) to 100 (complete control)
# [27] = Postemergence, 500 g ai/ha; visual rating after 13 to 15 days, scale 0 (no effect) to 100 (complete control)
compound,measurement,setting,value
CCNC(=O)c1ccc(F)c(NC(=O)C2CC(C(C)(C)C)=NN2CC)c1 (racemic) [Compound 269],Surinam Grass plant response rating (0 to 100 scale),[1]; [16],50
same,"Plant response rating, Surinam Grass",[1]; [17],100
same,Surinam Grass plant response rating,[1]; [18],10
same,Surinam Grass plant response rating,[1]; [19],20
same,Corn plant response rating (0 to 100 scale),[2]; [16],60
same,"Plant response rating, Corn",[2]; [17],80
same,Corn plant response rating,[2]; [18],10
same,Corn plant response rating,[2]; [19],30
same,"Crabgrass, Large plant response rating (0 to 100 scale)",[3]; [16],100
same,"Plant response rating, Crabgrass, Large",[3]; [17],100
same,"Crabgrass, Large plant response rating",[3]; [18],10
same,"Crabgrass, Large plant response rating",[3]; [19],20
same,"Foxtail, Giant plant response rating (0 to 100 scale)",[4]; [16],80
same,"Plant response rating, Foxtail, Giant",[4]; [17],100
same,"Foxtail, Giant plant response rating",[4]; [18],30
same,"Foxtail, Giant plant response rating",[4]; [19],30
same,Lambsquarters plant response rating (0 to 100 scale),[5]; [16],100
same,"Plant response rating, Lambsquarters",[5]; [17],100
same,Lambsquarters plant response rating,[5]; [18],50
same,Lambsquarters plant response rating,[5]; [19],70
same,Morningglory plant response rating (0 to 100 scale),[6]; [16],10
same,"Plant response rating, Morningglory",[6]; [17],20
same,Morningglory plant response rating,[6]; [18],20
same,Morningglory plant response rating,[6]; [19],40
same,Pigweed plant response rating (0 to 100 scale),[7]; [16],100
same,"Plant response rating, Pigweed",[7]; [17],100
same,Pigweed plant response rating,[7]; [18],60
same,Pigweed plant response rating,[7]; [19],60
same,Velvetleaf plant response rating (0 to 100 scale),[8]; [16],60
same,"Plant response rating, Velvetleaf",[8]; [17],100
same,Velvetleaf plant response rating,[8]; [18],10
same,Velvetleaf plant response rating,[8]; [19],20
same,Blackgrass plant response rating,[9]; [18],20
same,Blackgrass plant response rating,[9]; [19],50
same,Wheat plant response rating,"[10]; postemergence, 125 g ai/ha; visual rating, scale 0 (no effect) to 100 (complete control)",20
same,Wheat plant response rating,[10]; [20],30
same,"Oat, Wild plant response rating",[11]; [18],20
same,"Oat, Wild plant response rating",[11]; [19],30
same,Rice plant response rating,[12],80
same,"Sedge, Umbrella plant response rating",[13],80
same,Ducksalad plant response rating,[14],80
same,Barnyardgrass plant response rating,[15],90
CCN1N=C(C(C)(C)C)CC1C(=O)Nc1cc(C(=O)N2CC=CC2)ccc1F (racemic) [Compound 310],Surinam Grass plant response rating (0 to 100 scale),[1]; [16],30
same,Surinam Grass plant response rating,[1]; [21],10
same,"Plant response rating, Surinam Grass",[1]; [17],70
same,Surinam Grass plant response rating,[1]; [19],20
same,Corn plant response rating (0 to 100 scale),[2]; [16],40
same,Corn plant response rating,[2]; [21],0
same,"Plant response rating, Corn",[2]; [17],70
same,Corn plant response rating,[2]; [19],20
same,"Crabgrass, Large plant response rating (0 to 100 scale)",[3]; [16],90
same,"Crabgrass, Large plant response rating",[3]; [21],10
same,"Plant response rating, Crabgrass, Large",[3]; [17],100
same,"Crabgrass, Large plant response rating",[3]; [19],30
same,"Foxtail, Giant plant response rating (0 to 100 scale)",[4]; [16],50
same,"Foxtail, Giant plant response rating",[4]; [21],10
same,"Plant response rating, Foxtail, Giant",[4]; [17],100
same,"Foxtail, Giant plant response rating",[4]; [19],40
same,Lambsquarters plant response rating (0 to 100 scale),[5]; [16],100
same,Lambsquarters plant response rating,[5]; [21],60
same,"Plant response rating, Lambsquarters",[5]; [17],100
same,Lambsquarters plant response rating,[5]; [19],80
same,Morningglory plant response rating (0 to 100 scale),[6]; [16],0
same,Morningglory plant response rating,[6]; [21],0
same,"Plant response rating, Morningglory",[6]; [17],10
same,Morningglory plant response rating,[6]; [19],50
same,Pigweed plant response rating (0 to 100 scale),[7]; [16],80
same,Pigweed plant response rating,[7]; [21],50
same,"Plant response rating, Pigweed",[7]; [17],100
same,Pigweed plant response rating,[7]; [19],70
same,Velvetleaf plant response rating,[8]; [21],20
same,"Plant response rating, Velvetleaf",[8]; [17],100
same,Velvetleaf plant response rating,[8]; [19],50
same,Blackgrass plant response rating,[9]; [21],10
same,Blackgrass plant response rating,[9]; [19],30
same,Wheat plant response rating,"[10]; 125 g ai/ha; visual rating, scale 0 (no effect) to 100 (complete control); postemergence",10
same,Wheat plant response rating,[10]; [20],20
same,"Oat, Wild plant response rating",[11]; [21],30
same,"Oat, Wild plant response rating",[11]; [19],40
same,Rice plant response rating,[12],80
same,"Sedge, Umbrella plant response rating",[13],80
same,Ducksalad plant response rating,[14],90
same,Barnyardgrass plant response rating,[15],90
CCNC(=O)c1cccc(NC(=O)c2cc(C(C)(C)C)nn2CC(F)(F)F)c1 [Compound 31],"Plant response rating, Surinam Grass",[1]; [22],60
same,Surinam Grass plant response rating,[1]; [23],60
same,"Plant response rating, Surinam Grass",[1]; [24],30
same,Corn plant response rating,[2]; [25],30
same,"Plant response rating, Corn",[2]; [22],30
same,Corn plant response rating,[2]; [23],20
same,"Crabgrass, Large plant response rating",[3]; [25],20
same,"Plant response rating, Crabgrass, Large",[3]; [22],30
same,"Crabgrass, Large plant response rating",[3]; [23],50
same,"Foxtail, Giant plant response rating",[4]; [25],20
same,"Plant response rating, Foxtail, Giant",[4]; [22],30
same,"Foxtail, Giant plant response rating",[4]; [23],90
same,"Plant response rating, Foxtail, Giant",[4]; [24],60
same,Lambsquarters plant response rating,[5]; [25],90
same,"Plant response rating, Lambsquarters",[5]; [22],90
same,Lambsquarters plant response rating,[5]; [23],100
same,"Plant response rating, Lambsquarters",[5]; [24],90
same,Morningglory plant response rating,[6]; [25],30
same,"Plant response rating, Morningglory",[6]; [22],70
same,Morningglory plant response rating,[6]; [23],80
same,"Plant response rating, Pigweed",[7]; [22],90
same,Pigweed plant response rating,[7]; [23],100
same,"Plant response rating, Pigweed",[7]; [24],70
same,"Plant response rating, Velvetleaf",[8]; [22],50
same,Velvetleaf plant response rating,[8]; [23],90
same,"Plant response rating, Velvetleaf",[8]; [24],80
same,Blackgrass plant response rating,[9]; [25],0
same,"Plant response rating, Blackgrass",[9]; [26],50
same,"Plant response rating, Wheat",[10]; [27],10
same,"Oat, Wild plant response rating",[11]; [25],20
same,"Plant response rating, Oat, Wild",[11]; [26],30
same,Rice plant response rating,"[12]; visual rating, 13 to 15 days",80
same,"Sedge, Umbrella plant response rating","[13]; visual rating, 13 to 15 days",50
same,Ducksalad plant response rating,"[14]; visual rating, 13 to 15 days",80
same,Barnyardgrass plant response rating,"[15]; visual rating, 13 to 15 days",80
C=Cn1nc(C(C)(C)C)cc1C(=O)Nc1cccc(C(=O)N(CC)CC)c1 [Compound 34],"Plant response rating, Surinam Grass",[1]; [22],50
same,Surinam Grass plant response rating,[1]; [23],80
same,"Plant response rating, Surinam Grass",[1]; [24],20
same,Corn plant response rating,[2]; [23],0
same,"Crabgrass, Large plant response rating",[3]; [25],20
same,"Plant response rating, Crabgrass, Large",[3]; [22],20
same,"Crabgrass, Large plant response rating",[3]; [23],100
same,"Foxtail, Giant plant response rating",[4]; [25],30
same,"Plant response rating, Foxtail, Giant",[4]; [22],30
same,"Foxtail, Giant plant response rating",[4]; [23],90
same,"Plant response rating, Foxtail, Giant",[4]; [24],30
same,Lambsquarters plant response rating,[5]; [25],80
same,"Plant response rating, Lambsquarters",[5]; [22],90
same,Lambsquarters plant response rating,[5]; [23],100
same,"Plant response rating, Lambsquarters",[5]; [24],80
same,Morningglory plant response rating,[6]; [23],20
same,"Plant response rating, Morningglory",[6]; [24],0
same,"Plant response rating, Pigweed",[7]; [22],90
same,Pigweed plant response rating,[7]; [23],100
same,"Plant response rating, Pigweed",[7]; [24],100
same,"Plant response rating, Velvetleaf",[8]; [22],50
same,Velvetleaf plant response rating,[8]; [23],60
same,"Plant response rating, Velvetleaf",[8]; [24],20
same,Blackgrass plant response rating,[9]; [25],10
same,"Plant response rating, Blackgrass",[9]; [26],20
same,"Plant response rating, Wheat",[10]; [27],30
same,"Oat, Wild plant response rating",[11]; [25],10
same,"Plant response rating, Oat, Wild",[11]; [26],10
same,Rice plant response rating,"[12]; visual rating, 13 to 15 days",50
same,"Sedge, Umbrella plant response rating","[13]; visual rating, 13 to 15 days",80
same,Ducksalad plant response rating,"[14]; visual rating, 13 to 15 days",80
same,Barnyardgrass plant response rating,"[15]; visual rating, 13 to 15 days",80
